Assay: Solubility test of ginsenoside compound K depending on type of solvent
Format: physicochemical
Details: 95% of solvent and 5% of ginsenoside compound K
Description: The solubility of ginsenoside compound K was tested to be checked for representative polar and nonpolar solvents mainly used in cosmetics.

CC(C)=CCC[C@](C)(O[C@@H]1O[C@H](CO)[C@@H](O)[C@H](O)[C@H]1O)[C@H]1CC[C@]2(C)[C@@H]1[C@H](O)C[C@@H]1[C@@]3(C)CC[C@H](O)C(C)(C)[C@@H]3CC[C@]12C [ginsenoside compound K, 20-O-β-D-glucopyranosyl-20(S)-protopanaxadiol]
Solubility (60° C.) (solvent Ethanol): Soluble | Solubility (room temperature) (solvent Ethanol): Soluble | Solubility (60° C.) (solvent Glycerin): Insoluble | Solubility (room temperature) (solvent Glycerin): Insoluble | Solubility (60° C.) (solvent Mineral Oil): Insoluble | Solubility (room temperature) (solvent Mineral Oil): Insoluble | Solubility (60° C.) (solvent Non-Polar Ester Oil): Insoluble | Solubility (room temperature) (solvent Non-Polar Ester Oil): Insoluble | Solubility (60° C.) (solvent Polar Ester Oil): Insoluble | Solubility (room temperature) (solvent Polar Ester Oil): Insoluble | Solubility (60° C.) (solvent Silicone): Insoluble | Solubility (room temperature) (solvent Silicone): Insoluble | Solubility (60° C.) (solvent Surfactant): Insoluble | Solubility (room temperature) (solvent Surfactant): Insoluble | Solubility (60° C.) (solvent Vegetable Oil): Insoluble | Solubility (room temperature) (solvent Vegetable Oil): Insoluble | Solubility (60° C.) (solvent Water): Insoluble | Solubility (room temperature) (solvent Water): Insoluble
